Key:
[1] = test system: guinea pig left atrium; experiment: isolated guinea pig left atrium, isometric contraction in organ bath; settings: Cavia porcellus, read-out: Contractile foece of guinea pig left atrium Increase rate (%); for activation at 30 µg/mL: Dosage 3x10^-5 g/ml; for activation at 10 µg/mL: Dosage 10^-5 g/ml
Protocol: 2) Method of using isolated guinea pig left atrium
Male guinea pigs weighing 200 - 300 g were killed by hitting their back of the heat and their left atria were immediately isolated. The left atrium was fixed to the bottom of an organ bath filled with 30 ml of Klebs-Henseleit's solution maintained at 35 °C. A mixed gas comprising 95 % of 02 and 5 % of C02 was passed through the Klebs-Henseleit's solution in the organ bath. The auricle of the left atrium was connected to a transducer with a thread to measure the isometric contraction. The atrium was applied with 0.5 g of resting tension. The atrium was electrically driven by square wave of 1 millisecond duration at a voltage of the order of 1.5 times of the threshold voltage and at a rate of twice per second by means of two platinum electrodes. The preparation was stabilized for 30 minutes, then the compound dissolved in solvent was added to the organ bath, and the reaction was determined.

[2] = test system: anesthetized dog; experiment: anesthetized dog, cardiac contractility and cardiac output; format: in vivo; settings: for Co Increasing rate (%): blood flow rate in the aorta as index of cardiac output; for Cont Increasing rate (%): contractile force of the right cardiac ventricle muscle
Protocol: 3) Method of using anesthetized dog
Male or female mongrel dogs weighing 8 - 15 kg were used. The dogs were anesthetized with sodium pentobarbital at the dose of 30 mg/kg (intravenous injection) and then applied with artificial respiration. They were thoracotomised at the intercostal portion between forth and fifith costa, and the fifth costa was excised. Then the pericardium was cut to expose the heart. A probe of an electromagnetic flow meter was attached to the aorta to measure the blood flow rate in the aorta, which was used as an approximate index of the cardiac output (CO). A polyethylene cannula was inserted into the left cardiac ventricle to measure the intraventricular pressure, thereby the variation rate of the intraventricular pressure of the left cardiac ventricle (dp/dt) was electrically determined. A strain gauge was attached to the wall of the right cardiac ventricle to measure the contractile force of the right cardiac ventricle muscle (Cont). The systemic blood pressure was measured at the left femoral artery. The heart rate was measured by means- of a cardiotachometer. The compound dissolved in solvent was applied intravenously from the left femoral vein.

[3] = test system: dog papillary muscle; experiment: cross-circulated preparation of isolated dog papillary muscle; settings: Canis lupus familiaris, read-out: Contractile force of dog papillary muscle Increasing rate (%); for activation at 0.03 mg: Dosage 30 µg i.a.; for activation at 0.1 mg: Dosage 100 µg i.a.
Protocol: 1) Method of using cross-circulated preparation of isolated dog papillary muscle
Cross-circulated preparations of isolated dog papillary muscle were prepared according to the method of Endoh & Hashimoto, American J. Physiol., vol. 218, p.1459-1463, 1970, United States. The compound dissolved in solvent was injected to the artery close to the preparation, and the action of the compound on the contractile force of papillary muscle was determined.

Row | SMILES | activation at 30 µg/mL [1] | activation at 10 µg/mL [1] | dp/dtmax Increasing rate (%) ([2]; Dosage 30 µg/kg i.v.) | Co Increasing rate (%) ([2]; Dosage 30 µg/kg i.v.) | Cont Increasing rate (%) ([2]; Dosage 30 µg/kg i.v.) | dp/dtmax Increasing rate (%) ([2]; Dosage 100 µg/kg i.v.) | Co Increasing rate (%) ([2]; Dosage 100 µg/kg i.v.) | Cont Increasing rate (%) ([2]; Dosage 100 µg/kg i.v.) | activation at 0.03 mg [3] | activation at 0.1 mg [3]
1 | COc1ccc(CN2CCN(C(=O)COc3ccc(C4=NNC(=O)CC4)cc3)CC2)cc1 [Compound of Example 3] | 28% | 32% | 18.0% | 17.4% | 12.2% | 49.8% | 28.9% | 29.1% | 13.2% | 17%
2 | COc1cc(C2=NNC(=O)CC2)ccc1OCC(=O)N1CCN(Cc2ccc(OC)c(OC)c2OC)CC1 [Compound of Example 1] | 44.8% | 35.5% | 12.9% | 5.5% | 7.9% | 27.1% | 13.3% | 21.5% | 10% | 20.1%
3 | COc1ccc(N2CCN(C(=O)C(C)Oc3ccc(C4=NNC(=O)CC4)cc3OC)CC2)cc1 (stereo not shown) [Compound of Example 4] | 35.9% | 23.8% | 9.9% | 8.7% | 3.6% | 19.2% | 19.6% | 10.0% | 7.5% | 24.8%
4 | COc1ccc(CN2CCN(C(=O)COc3ccc(C4=NNC(=O)CC4)cc3)CC2)c(OC)c1OC [Compound of Example 2] | 22.6% | 6.4% | 12.2% | 4.8% | 10.1% | 34.3% | 16.3% | 22.8% | 11.4% | 12.5%

From patent EP0252422A2, “Pyridazinone derivatives and salts thereof” (MITSUBISHI KASEI CORPORATION, priority 1986, dated 1988)
